Measured values taken from patent publication US20210077382A1, “COMPOSITIONS, DEVICES, AND METHODS FOR THE TREATMENT OF OPIOID-RECEPTOR-MEDIATED CONDITIONS” (Opiant Phamaceuticals, Inc., priority 2016, published 2021).

Assays:
[1] = Clinical pharmacokinetic crossover study of IN, IM and oral naltrexone; plasma naltrexone and 6β-naltrexol by LC-MS/MS; conditions: 4 mg IN; 5 minutes postdose
From the text: Study Goals. […] Secondary endpoints included adverse events (AEs), vital signs (heart rate, sitting blood pressure, and respiration rate), electrocardiogram (ECG), clinical laboratory changes and nasal irritation using the nasal irritation scale.
Study design. […] This was an in-patient open-label, crossover study involving approximately 14 healthy volunteers. […] Subjects stayed in the in-patient facility for 13 days to complete the entire study. Subjects were called 3 to 5 days after discharge to inquire concerning AEs and concomitant medications since discharge. Informed consent was obtained from all subjects, and all were screened for eligibility to participate in the study, including medical history, physical examination, clinical chemistry, coagulation markers, hematology, infectious disease serology, urinalysis, urine drug and alcohol toxicology screen, vital signs and ECG.
On days of study drug administration, a 12-lead ECG was performed approximately 1 hour prior to dosing and at approximately 1 and 4 hours post-dose. Vital signs were measured pre-dose and about 1 and 4 hours post-dose.
Study Drugs and Dosing. […] The IN (40 mg/mL) formulations were made by the staff pharmacist at Vince & Associates; the vehicle for the IN formulations was sterile water for injection. The IM formulation (2 mg/mL) was made by the staff pharmacist at Vince & Associates; the vehicle was sterile saline for injection.
Subjects stayed in the in-patient facility for 13 days to complete the entire study and were discharged 2 days after the fourth dose.
PK Assessments. […] Plasma was separated from whole blood and stored frozen at […] until assayed.
Analysis. […] Dose-adjusted values for AUCs and Cmax were calculated. The relative extent of IN and PO absorption (IN and PO versus IM) will be estimated from the dose-corrected AUCs.

[2] = Safety assessments (adverse events, vital signs, ECG, nasal irritation) in the clinical study; format: in vivo, human
Protocol: On dosing days, the order of assessments was ECG, vital signs, then PK blood collection when scheduled at the same nominal times. The target time of the PK blood collection was considered the most critical and if the collection was more than ±1 minute from the scheduled time for the first 60 minutes of collections or more than ±5 minutes for the scheduled time points thereafter, this was considered a protocol deviation. ECG and vital signs were collected within the 10-minute period before the nominal time of blood collections. At screening, admission, and discharge, ECG, and vital signs were checked once per day. […] Clinical laboratory measurements were repeated after the last PK blood draw prior to clinic discharge. AEs were assessed by spontaneous reports by subjects, by examination of the nasal mucosa, by measuring vital signs, ECG, and clinical laboratory parameters.
Safety Assessments. […] ECG and vital signs were performed within the 10-minute period before the nominal time for post-dose blood collections. Adverse events (AEs) were recorded from the start of study drug administration until clinic discharge.

[3] = reported to be as low as; Gonzalez and Brogden 1988; cited from earlier work
[4] = intranasal formulation with […] Intravail; cited from earlier work
[5] = same conditions as naltrexone; cited from earlier work

O=C1CC[C@@]2(O)[C@H]3Cc4ccc(O)c5c4[C@@]2(CCN3CC2CC2)[C@H]1O5 [naltrexone, 17-(cyclopropylmethyl)-4,5a-epoxy-3,14-dihydroxymorphinan-6-one]
Difference of mean naltrexone concentrations with and without Intravail [1]: 8 fold | Subjects with dizziness (most frequent AE regardless of severity or attribution) ([2]; 5 subjects of 14): 36% | Subjects with AEs of the Nervous System Disorders SOC (most frequent AEs) ([2]; 7 subjects of 14): 50% | Severe AEs ([2]; all dosing periods): No severe AEs were observed | Moderate AEs ([2]; dizziness after the first dose (4 mg IN), considered related to the study agent): one | Subjects discontinued from the study due to AEs ([2]; hypertension, syncope, out-of-range pre-dose vital signs): Three | Treatment-related unexpected AE ([2]; mild syncope after the Day 1 dose (4 mg IN)): one | Subjects who experienced at least one AE ([2]; safety population, 10 of 14 subjects, any dosing period, any relationship to drug): 71% | Subjects who experienced unexpected AEs ([2]; two UAEs considered unrelated to the study agent): Three | Oral bioavailability [3]: 5%

CNS(=O)(=O)Cc1ccc2[nH]cc(CCN(C)C)c2c1 [sumatriptan]
Increase of maximum plasma concentration in comparison to Imitrex nasal spray [4]: almost four-fold | Increase of total exposure (AUC) [4]: 32% | Tmax [4]: 8 to 10 min

C=C1CC[C@@]2(O)[C@H]3Cc4ccc(O)c5c4[C@@]2(CCN3CC2CC2)[C@H]1O5 [nalmefene, 17-cyclopropylmethyl-4,5α-epoxy-6-methylenemorphinan-3,14-diol]
Change of AUC when an alkylsaccharide is added to the intranasal formulation [5]: do not have increased AUC
